Assay results as given in patent US7087228B2, “Preventing tooth decay and infective endocarditis using natural oligopeptides” (University of Southern California, priority 2002, dated 2006).

Assays:
FTF expression = assay: Western blot control with antibody specific to FTF; format: cell-based, S. mutans; conditions: same blot analyzed with antibody specific to FTF; FIG. 6 panel 2
Description: (§1) For the Western blotting, the bacteria were incubated to the desired optical density, subjected to the freeze-thaw cycle and mixed with the sample loading buffer. The samples were heated at 100° C. for 15 minutes and subjected to the PAGE. The number of cells per lane of the gel was kept constant at 10^8 cells. The western blotting was performed in accordance with a standard procedure (Sambrook, J. and Russel D. W. Molecular Cloning, a laboratory manual, 3rd ed. Cold Spring Harbor Laboratory Press, NY, 2001). Briefly, after PAGE the samples were transferred onto the nitrocellulose membrane and the latter subjected to the standard ELISA procedure. The anti-GTFB mouse monoclonal antibody was previously characterized (Fukushima, K., Okada, T., Ochiai, K., Infection and Immunity 61:323–328 (1993), incorporated herein by reference). The secondary antibody (HRP-linked goat anti-mouse) and the detection reagents were purchased from Cell Signaling Technology (Beverly, Mass.).
(§2) Synthetic CSP was dissolved in water to the concentration of 1 mg/mL as described in Li, Y-H et al., J. of Bact., 183:897–908 (2001). […]
(§3) A Western blot analysis was performed to determine the effect of CSP on the level of GTFB expression. […] As a control, the same blot was analyzed with antibody specific to FTF, where it was observed that CSP has no effect on FTF expression (FIG. 6, panel 2).

S. mutans = assay: In vitro attachment assay to a smooth surface (Petri dish) with sucrose; format: cell-based; conditions: CSP at 8 μg/mL for 10 minutes prior to hour-long incubation on Petri dishes with sucrose; up to 51% without CSP; FIG. 8
Description: The bacteria were grown in liquid cultures to the desired optical density. 20 ml of the cultures were then transferred into Petri dishes and sucrose added to the final concentration of 2%. The incubation was resumed for one hour, after which the liquid fraction was withdrawn and the fresh medium was added into which the layer of attached cells was scraped. The percentage of the attached bacteria was determined as the ratio of the optical densities of the attached to the total (a sum of attached and unattached) bacteria.
Synthetic CSP was dissolved in water to the concentration of 1 mg/mL as described in Li, Y-H et al., J. of Bact., 183:897–908 (2001). The cultures were grown in Todd Hewitt Broth (THB) supplemented with 5% horse serum. CSP was added to the cultures at the time of diluting the overnight culture (time zero of the culture growth) to a designated concentration between 1 and 8 mcg/mL. The incubation then continued up to the optical density where the expression of GTF is maximal (OD 650=0.1). The cultures where then collected and used in Western blotting with anti-glucosyltransferase (gtf) antibody. […]
An in vitro assay was performed to determine whether CSP can inhibit the attachment of S. mutans to a smooth surface. When sucrose was added to the medium, the wild-type S. mutans readily attached to the surface of a Petri dish. […]

gtfB gene of S. mutans = assay: Transcriptional fusion assay (gtfB promoter-luciferase, luminescence); format: cell-based; conditions: increasing concentrations of CSP, 10 minutes incubation at peak expression (end of lag phase); FIG. 7
Description: The fusion constructs and the transcription assay were previously described (Goodman, S. D. and Gao, Q., Plasmid 43:85–98 (2000)). Briefly, the constructs comprised the upstream regions of the gtfB and gtfC genes fused to the promoterless coding sequence of the firefly luciferase gene and inserted into the plasmid vector pVA838, a shuttle plasmid capable of propagating in both E. coli and S. mutans marked with erythromycin resistance. The plasmids were introduced into S. mutans GS5 by electroporation and the resulting erythromycin resistant strains were grown in liquid cultures and collected at various optical densities. The reporter gene (luciferase) expression was detected by measuring luminescence upon the addition of luciferin (the substrate for luciferase), see Goodman, S. D. and Gao Q. Plasmid 42:154–157 (1999), incorporated herein by reference.
as §2
The transcriptional fusion assay was performed to determine whether CSP inhibits the expression of the gtfB gene of S. mutans. […] When the expression peaked at the end of the lag phase prior to the exponential growth, the cells were challenged with increasing concentrations of CSP for an incubation period of 10 minutes and assessed for luminescence, the measure of reporter gene expression. […]

[1] = tested on: GTFB expression in the wild-type S. mutans; assay: Western blot of GTFB expression after addition of CSP to cultures; format: cell-based; conditions: CSP added to fresh cultures at the time of dilution, 1 to 8 mcg/mL, FIG. 6 panel 1
Description: as §1, §2, §3

Substance: CSP: natural peptide produced and secreted by S. mutans that acts as an autoinducer; sequence SEQ ID NO: 1 (FIG. 1); synthetic CSP was used (SGSLSTFFRLFNRSFTQALGK; Streptococcus mutans)
- effect on FTF expression (Western blot) (FTF expression): no effect
- bacterial cells localized to the attached layer (S. mutans): less than 8%
- repression of gtfB reporter gene expression (luminescence) (gtfB gene of S. mutans): increasing concentrations of CSP increased the magnitude of repression
- peak expression of GTFB (Western blot) [1]: lowered proportionally to the amount of peptide added
